Data reported in PMC4417528, “Loureirin B, an essential component of Sanguis Draxonis, inhibits Kv1.3 channel and suppresses cytokine release from Jurkat T cells” (Cell & Bioscience, 2014).

Tests used:
Format in all cases: cell-based
mKv1.3-H404T = biological target: T1, mKv1.3-H404T (Mus musculus, UniProt P16390, H404T); assay: whole-cell patch clamp, HEK293T cells, steady-state current at +[…] mV
T1 construct: gene Kcna3; mKv1.3 mutant expressed in HEK293T cells

mKv1.3 = biological target: T2, mKv1.3 (Mus musculus, UniProt P16390); assay: as above
T2 construct: gene Kcna3; wild-type mKv1.3 expressed in HEK293T cells

mKv1.3-A418C = biological target: T3, mKv1.3-A418C (Mus musculus, UniProt P16390, A418C); assay: as above
T3 construct: gene Kcna3; mKv1.3 mutant expressed in HEK293T cells

Kv1.3 = biological target: T4, Kv1.3 (Homo sapiens, UniProt P22001); assay: whole-cell patch clamp, Jurkat T cells
T4 construct: gene KCNA3; endogenous Kv1.3 in Jurkat T cells
T4 sequence (P22001 whole entry): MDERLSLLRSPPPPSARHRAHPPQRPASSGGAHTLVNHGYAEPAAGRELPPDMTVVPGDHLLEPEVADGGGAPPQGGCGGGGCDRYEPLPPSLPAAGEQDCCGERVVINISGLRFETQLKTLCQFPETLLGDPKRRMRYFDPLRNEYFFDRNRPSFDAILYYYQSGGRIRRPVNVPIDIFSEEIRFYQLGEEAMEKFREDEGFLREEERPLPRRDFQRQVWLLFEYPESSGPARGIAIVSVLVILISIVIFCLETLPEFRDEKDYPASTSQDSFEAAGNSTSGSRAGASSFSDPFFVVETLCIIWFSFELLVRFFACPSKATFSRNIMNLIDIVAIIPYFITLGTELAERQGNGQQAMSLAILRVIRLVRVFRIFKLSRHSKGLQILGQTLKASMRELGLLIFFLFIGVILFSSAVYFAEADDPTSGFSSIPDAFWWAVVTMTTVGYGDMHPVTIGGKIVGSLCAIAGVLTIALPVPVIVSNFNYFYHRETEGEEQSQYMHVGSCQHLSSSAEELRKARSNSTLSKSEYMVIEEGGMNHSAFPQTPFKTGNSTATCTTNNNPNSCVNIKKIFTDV

T2 sequence (P16390 whole entry): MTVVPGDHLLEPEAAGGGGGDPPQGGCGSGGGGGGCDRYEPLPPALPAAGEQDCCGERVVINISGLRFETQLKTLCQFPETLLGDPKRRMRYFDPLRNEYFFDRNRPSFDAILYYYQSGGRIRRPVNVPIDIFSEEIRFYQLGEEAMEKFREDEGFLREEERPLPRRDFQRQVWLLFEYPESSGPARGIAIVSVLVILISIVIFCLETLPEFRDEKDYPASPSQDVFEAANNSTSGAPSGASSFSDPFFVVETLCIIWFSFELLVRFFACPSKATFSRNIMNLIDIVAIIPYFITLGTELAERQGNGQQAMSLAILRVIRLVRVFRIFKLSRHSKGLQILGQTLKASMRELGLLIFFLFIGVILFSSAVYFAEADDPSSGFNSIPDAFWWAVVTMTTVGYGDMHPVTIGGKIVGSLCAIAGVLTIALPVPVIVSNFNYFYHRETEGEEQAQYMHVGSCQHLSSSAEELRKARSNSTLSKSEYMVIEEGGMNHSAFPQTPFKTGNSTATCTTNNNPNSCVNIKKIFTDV
T1 sequence (P16390 whole entry H404T): as the sequence (P16390 whole entry) above, with H404T counted along it
T3 sequence (P16390 whole entry A418C): as the sequence (P16390 whole entry) above, with A418C counted along it

An IC50 (mKv1.3-H404T) of 116 ± 19.8 µM, an IC50 (mKv1.3) of 7.2 ± 0.6 µM and an IC50 (mKv1.3-A418C) of 29.1 ± 7.1 µM were found for COc1cc(OC)c(CCC(=O)c2ccc(O)cc2)c(OC)c1 [LrB, loureirin B] in this work. The IC50 (Kv1.3) was 19.9 ± 1.8 µM.
